Consider one substance from patent US9555086B2, “Compositions and methods for inducing an immune response” (The Regents of the University of Michigan, priority 2010, dated 2017).

The subject of one assay is CD4+CD25+Foxp3+ Treg. Put plainly: Treg differentiation in DC/CD4+ T cell co-culture. As to conditions: 50 μg/ml peptide; for Treg differentiation (CD4+CD25+Foxp3+ abundance): DCs co-cultured with naïve CD4+CD25−CD62L+CD44− T cells, 5 days. Format: cell-based, mouse. How it is done:
(A) DBA/1 bone marrow-derived CD11c+DCs were cultured overnight with 50 μg/ml SL ligand 65-79*0401 or ISL-negative control 65-79*0402, or medium. Syngeneic splenic CD4+ T cells were then added to the culture, and incubated with anti-CD3 and TGF-β for 5 days. On the left, flow cytometry dot plots showing percentages of CD25+Foxp3+ cells obtained from gated CD4+ T cells in each treatment. Each plot is representative of three experiments. On the right, bar graphs present results as mean percentage±SD of replicate samples. (B) Cultures were performed as in (A), with the exception that CD4+CD25− CD62L+CD44− naïve T cells, instead of CD4+ T cells were added to the CD11c+DCs. (C) DBA/1 bone marrow-derived CD11c+DCs were incubated overnight with 2 μg/ml tetramers (ISL-positive T-DRB1*0401, versus ISL-negative T-DRB1*0301, or T-DRB1*1501). Syngeneic CD4+CD25−CD62L+CD44− naïve T cells, anti-CD3 and TGF-β were then added to the culture and incubated for 5 days and analyzed as above.
DBA/1 bone marrow-derived CD11c+DCs were placed in 24-well plates (BD Biosciences, San Jose, Calif.) at a density of 2.5×10^5 cells per well and cultured overnight with or without 50 μg/ml of peptidic (65-79*0401 or 65-79*0402), or 2 μg/ml of tetrameric (T-DR1*0401, T-DR1*0301, or T-DR1*1501) ligands at 37° C. On the following day, 5.0×10^5 CD4+ T cells or CD4+CD25−CD62L+CD44− naïve T cells, isolated as described above, were added to each well in addition to anti-CD3 antibodies (5 μg/ml) and rhTGFβ (2.5 ng/ml).
After 5 days in culture, cells were harvested and stained for flow cytometric analysis using FITC anti-mouse CD4 (clone […]), PE anti-mouse CD25 (clone PC61) and isotype controls (Biolegend, San Diego, Calif.). […] After permeabilization, cells were stained using an APC-conjugated anti-mouse Foxp3 antibody (clone FLK-16S from e-Bioscience, San Diego, Calif.) and analyzed by FACScalibur flow cytometer using the CELLQuest™ software (Becton Dickinson, Franklin Lakes, N.J.).

Another assay relates to Th17 cells. Nature of the assay: ISL polarizing effect in vivo (CII in CFA immunization). Set-up: species or system DBA/1 mice. How it is done:
(A) DBA/1 mice were immunized with CII in CFA in the presence of PBS, 65-79*0401 or 65-79*0402. On day 7, cells from draining lymph nodes were isolated, cultured for 6 hours with PMA, Ionomycin and Brefeldin A and then stained with anti-mouse CD4, IL17A and IFN-γ as above. On the left: Representative dot plots showing percentages of IL17A+ and IFN-γ+ cells obtained from gated CD4+ cells. On the right, bar graphs showing results as mean±SD of duplicate experiments. (B) DBA/1 and CII-TCR Tg mice were immunized as in (A). On day 7, splenic cells were isolated and cultured with the synthetic peptide CII260-267 (5 μg/ml). Supernatants were collected every 24 hours and assayed for IL-17 levels by ELISA.
Mice were injected subcutaneously in the footpad with 100 μg of chicken collagen type II (CII) (Chondrex, Inc, Redmond, Wash.) emulsified in CFA (4 mg/ml). The inoculums contained 10 μg of either ISL-positive 65-79*0401 or ISL-negative 65-79*0402 ligands in PBS, or an equal volume of PBS alone. Animals were sacrificed 7 days after immunization. For Th17 quantification studies, inguinal and popliteal lymph nodes were collected and single cell suspensions were prepared. Unfractionated lymph node cells were cultured with PMA, Ionomycin and Brefeldin A for 6 hours as above. Cells were stained with FITC anti-mouse CD4 or isotype controls, followed by fixation and permeabilization using a Cytofix-Cytoperm™ kit. After permeabilization, intracellular staining was performed using PE-conjugated anti-mouse IL17A and APC-conjugated anti-mouse IFN-γ and cells were analyzed by flow cytometry as above. To measure IL-17 production, splenocytes from mice immunized as above were stimulated in vitro with 5 μg of CII259-273 peptide. At different time points thereafter, supernatants were collected and assayed for IL-17 by ELISA as above.

In assay [1] the test system is Human fibroblast M1 cells. The settings on record: previously determined; cited from earlier work.

For the substance H-KDLLEQKRAAVDTYC-NH2 [65-79*0401], the “Treg expansion (CD4+CD25+Foxp3+ abundance)” value in the assay on CD4+CD25+Foxp3+ Treg (DCs co-cultured with CD4+ T cells, TGF-β, anti-CD3, 5 days) is on record as “significantly inhibited”. The “Treg differentiation (CD4+CD25+Foxp3+ abundance)” value with CD4+CD25+Foxp3+ Treg is given as “significantly inhibited”; in the assay on CD4+CD25+Foxp3+ Treg (listed as 65-79*040), “statistically significant, yet modest”. Moreover, the “Th17 abundance in draining lymph nodes” value with Th17 cells (10 μg co-administered with CII in CFA, footpad, day 7) was “dramatically increased”. Moreover, the “CII-stimulated IL-17 production by splenocytes” value with Th17 cells (compared to mice co-immunized with 65-79*0402) is listed as “significantly more robust”. Besides, the “frequency of Th1 (IFNγ-positive) cells” value with Th17 cells (draining lymph nodes, day 7) is listed as “no change”. Moreover, the “optimal concentration for NO production” value in assay [1] was 50 µM.
